Laboratory results taken from patent US8128963B2, “Methods for treating ischemic disorders using carbon monoxide” (The Trustees of Columbia University in the City Of New York, priority 1999, dated 2012).

How the values were obtained:
P-selectin [1] = experiment: Surface P-selectin expression on hypoxic HUVECs (radiolabeled anti-PS antibody binding); format: cell-based, human
Procedure: (§1) Hypoxia or free radicals induce P-selectin (PS) translocation to the endothelial cell (EC) surface, where it participates in neutrophil (PMN) adhesion during reperfusion. To explore a mechanism whereby nitrovasodilators may attenuate postischemic leukosequestration, we tested whether stimulating the NO/cGMP pathway could attenuate surface PS expression in hypoxic human umbillical vein ECs. […] Under similar conditions, addition of the NO donor 3-morpholino sydnonimine (SIN-1, 0.1 mM) or the cGMP analog 8-Bromo-cGMP (cGMP, 10 nM) caused a reduction in vWF release; Control vWF, 11±0.4 mU/mL; SIN-1, 9.1±0.3 mU/mL; cGMP, 9.7±0.2 mU/mL; p<0.005 for both SIN-1 or cGMP vs Control.

hypoxic HUVECs = experiment: Immunofluorescent adherence assay, HL60 binding to hypoxic HUVECs; format: cell-based, human
Procedure: as §1

[2] = system: hypoxic human umbillical vein ECs; experiment: vWF release from hypoxic HUVECs, NO/cGMP pathway; format: cell-based; conditions: hypoxia pO2<20 Torr 4 hours; SIN-1 0.1 mM, 8-Bromo-cGMP 10 nM
Procedure: as §1

[3] = system: intracellular calcium concentration [Cai]; experiment: Intracellular calcium by fura-2 fluorescence in hypoxic ECs; format: cell-based, human
Procedure: as §1

ECs = experiment: Protein synthesis: 35S-methionine/cysteine in trichloroacetic acid-precipitable material; format: cell-based; conditions: Homo sapiens; 10 μg/mL, 4 hrs
Procedure: (§2) Measurement of Weibel-Palade body exocytosis: ECs were plated into 24 well plates, rinsed 3 times with Hank's balanced salt solution, and then exposed to hypoxia or to normoxia for the indicated durations. For experiments in which vWF was measured, cells were maintained in serum-free medium. All other EC experiments were performed in the EC growth medium described above. […] EC P-selectin expression was determined by measuring the specific binding of a murine monoclonal anti-human P-selectin antibody (WAPS 12.2 clone, Endogen, Cambridge, Mass.; this is an IgGl which recognizes a calcium sensitive epitope and blocks P-selectin dependent neutrophil adhesion. Antibody was radiolabelled with ^125I by the lactoperoxidase method (19) using Enzymobeads (Bio-Rad, Hercules, Calif.), stored at 4° C. and used within one week of labelling. Binding assays were performed on HUVECs plated on 96 well plates, in which fresh M199 with 0.1% bovine serum albumin (Sigma, St. Louis, Mo.) was added immediately prior to each experiment. […] After binding for 1 hour at 37° C., monolayers were washed 4 times with HBSS/A, and bound antibody was eluted with 1% triton X-100 in PBS (200 μL/well) and counted. […] Following 4 hours of normoxic exposure, trichloroacetic acid-precipitable material was collected and counted.

Human umbilical vein ECs = experiment: vWF release from hypoxic endothelial cells (ELISA); format: cell-based; conditions: cycloheximide 10 μg/ml added at start of hypoxic period, 4 hours of hypoxia
Procedure: Endothelial cell culture and exposure of cells to H or H/R. Human umbilical vein ECs were prepared from umbilical cords and grown in culture by the method of Jaffe (16) as modified by Thornton (17). Experiments utilized confluent ECs (passages 1-4) grown in Medium 199 supplemented with fetal bovine serum (15%; Gemini, Calabasas, Calif.), human serum (5%; Gemini), endothelial growth supplement (Sigma, St. Louis, Mo.), heparin (90 μg/ml; Sigma) and antibiotics, as described (17). When ECs achieved confluence, experiments were performed by placing cultures in an environmental chamber (Coy Laboratory Products, Ann Arbor, Mich.) which provided a controlled temperature (37° C.) and atmosphere with the indicated amount of oxygen, carbon dioxide (5%) and the balance made up of nitrogen. Use of this chamber for cell culture experiments has been described previously (15,18). During exposure of ECs to hypoxia (for a maximum of 16 hours), the oxygen tension in the culture medium was 14-18 torr and there was no change in the medium pH. Reoxygenation was performed by placing ECs in an ambient atmosphere containing carbon dioxide (5%) at 37° C.
Measurement of Weibel-Palade body exocytosis: ECs were plated into 24 well plates, rinsed 3 times with Hank's balanced salt solution, and then exposed to hypoxia or to normoxia for the indicated durations. For experiments in which vWF was measured, cells were maintained in serum-free medium. All other EC experiments were performed in the EC growth medium described above. For measurement of vWF, 200 μL aliquots of culture supernatant was removed at the indicated times, and a commercially available ELISA (American Diagnostica, Greenwich, Conn.), based on a polyclonal goat anti-human vWF antibody, was performed on duplicate specimens, with a standard curve generated using purified human vWF antigen supplied by the same vendor. EC P-selectin expression was determined by measuring the specific binding of a murine monoclonal anti-human P-selectin antibody (WAPS 12.2 clone, Endogen, Cambridge, Mass.; this is an IgGl which recognizes a calcium sensitive epitope and blocks P-selectin dependent neutrophil adhesion. Antibody was radiolabelled with ^125I by the lactoperoxidase method (19) using Enzymobeads (Bio-Rad, Hercules, Calif.), stored at 4° C. and used within one week of labelling. Binding assays were performed on HUVECs plated on 96 well plates, in which fresh M199 with 0.1% bovine serum albumin (Sigma, St. Louis, Mo.) was added immediately prior to each experiment. Cells were placed in a humidified environment at 37° C., and exposed to normoxia or H (in the presence or absence of 50 μM probucol, as indicated, Sigma) for the indicated durations. Cell monolayers were fixed for 15 min. with 1% paraformaldehyde^10 (cells exposed to H were fixed while still within the hypoxic environment), visually inspected to ensure that the monolayers remained intact, and washed twice with HBSS containing 0.5% bovine serum albumin (HBSS/A). Monolayers were then exposed to 10^5 cpm of ^125I-labelled anti-P-selectin antibody (WAPS 12.2) in the presence of 200 μg/mL of either unlabelled blocking antibody (WAPS 12.2) or nonblocking anti-P-selectin IgG of the same isotype (anti-GMP-140, AC1.2 clone, Becton-Dickinson, San Jose, Calif.) (20,21). After binding for 1 hour at 37° C., monolayers were washed 4 times with HBSS/A, and bound antibody was eluted with 1% triton X-100 in PBS (200 μL/well) and counted. […]

P-selectin [4] = experiment: EC P-selectin expression by specific binding of 125I anti-P-selectin antibody; format: cell-based, human; conditions: cycloheximide 10 μg/mL given at onset of H, 4 hour time point
Procedure: as §2

## Nc1nc2c(nc(Br)n2[C@@H]2O[C@@H]3COP(=O)(O)O[C@H]3[C@H]2O)c(=O)[nH]1 [cGMP, 8-Bromo-cGMP]
P-selectin [1]; ECs in calcium-free medium
  PS expression in calcium-free medium: Neither SIN-1 nor cGMP could further reduce PS expression
P-selectin [1]; hypoxia 4 hours, SIN-1 0.1 mM, 8-Bromo-cGMP 10 nM
  decrease of surface PS expression vs controls: 48%
Hypoxic HUVECs
  decrease of HL60 binding to hypoxic HUVECs vs controls: 86%
[2]
  vWF release: 9.7±0.2 mU/mL
[3]
  hypoxia-increased intracellular calcium concentration [Cai]: could be blocked

## C[C@@H]1C[C@@H]([C@H](O)CC2CC(=O)NC(=O)C2)C(=O)[C@@H](C)C1 [cycloheximide]
ECs
  inhibition at 10 µg/mL: > 85%
Human umbilical vein ECs
  decrease of hypoxia-induced vWF release: 12.5%
P-selectin [4]
  hypoxia-induced endothelial P-selectin expression: hypoxia still increased endothelial P-selectin expression, albeit at reduced levels
